Results from patent US20230349922A1, “H2 Blockers Targeting Liver Macrophages for the Prevention and Treatment of Liver Disease and Cancer” (Université de Strasbourg, priority 2020, published 2023).

How the values were obtained:
[1] = in vivo; cited from earlier work
[2] = in vivo; cited from earlier work; remark: listed apart in the source
[3] = rodents; cited from earlier work
[4] = system: patient-derived HCC tumor spheroids; assay: Cell viability (ATP, CellTiter-Glo) of patient-derived HCC tumorspheroids; assay type: cell-based, human; conditions: sorafenib 10 μM, 4 days; some of the patient tumors
Method: Patient-Derived HCC Tumor Spheroids. Tumorspheroids were generated from liver tissues from HCC patients undergoing surgical resection and dissociated using the Human Tumor Dissociation Kit. Total cell populations including epithelical (i.e., cancer cells/hepatocytes) and NPCs were used to generate multicellular tumorspheroids in Corning® 96-well Black/Clear Bottom Low Flange Ultra-Low Attachment Microplates (Corning). After 48 hours, HCC-derived spheroids were treated with nizatidine 50 μM, sorafenib 10 μM or DMSO vehicle control for 4 days. Fresh medium containing DMSO or drugs was added every day. Cell viability was assessed using CellTiter-Glo® (Luminescent Cell Viability Assay), according to manufacturer's instruction.

[5] = system: HRH2/cAMP/PKA axis; assay: PLS assessment upon perturbation of the HRH2/cAMP/PKA axis in Huh7.5.1dif cells; assay type: cell-based, human; conditions: 48 hours, histamine 10 μM, 8-CPT cAMP 100 μM, H89 10 μM
Method: Histamine, 8-CPT, cAMP and H89 Treatment. Huh7.5.1^dif cells were cultured in DMEM containing 1% FBS and 1% DMSO and incubated with histamine (10 μM) or histamine+nizatidine (10 μM) for 48 hours. Fresh medium containing histamine was replenished every 12 hours. For 8-CPT cAMP and H89, Huh7.5.1^dif cells cultured in DMEM 1% DMSO and 1% FBS were incubated with 8-CPT cAMP (100 μM), H89 (1 μM) or DMSO as a control for 48 hours. Fresh medium containing 8-CPT cAMP was replenished every 12 hours.
Transcriptomic Analysis and PLS Calculation. Gene expression profiling and the 32 gene PLS 32 profiling were performed using 250-500 ng total RNA by using either nCounter Digital Analyzer system (NanoString) or the HumanHT-12 beadarray (Illumina) for the time-course experiments. PLS gene expression was normalized according to 6 housekeeping gene expression using GenePattern genomic analysis toolkits (Hoshida, PLOS ONE, 2010, 5: e15543; Peck et al., Genome Biol., 2006, 7: R61; Reich et al., Nature Genet., 2006, 38: 500-501). Induction or suppression of PLS risk signature was determined as previously reported by using Gene Set Enrichment Analysis (GSEA), implemented in GenePattern genomic analysis toolkits (Hoshida, PLOS ONE, 2010, 5: e15543; Peck et al., Genome Biol., 2006, 7: R61; Reich et al., Nature Genet., 2006, 38: 500-501). PLS was always determined by using CTRL cells as references. Results are presented as simplified heatmaps showing the classification of PLS global status as poor or good prognosis and the significance of induction/suppression of PLS genes (log 10 of false discovery rate (FDR) values). For each experiment, heatmaps show: in the upper part: the classification of PLS global status as poor (orange) or good (green) prognosis, and in the bottom part: the significance of induction (red) or suppression (blue) of PLS poor- or good-prognosis genes. Global status corresponds to the difference between low risk- and high risk-gene expression. The statistic tests, normalized enrichment score (NES) and FDR values are provided for each PLS experiment (poor- and good-prognosis genes variation and global status) in the Source Data file.

[6] = system: HCC; conditions: one animal model study (Furuta et al., 2008), circumstantial evidence; cited from earlier work
[7] = system: natural killer cell; conditions: patients with transarterial chemoembolization (Nishiguchi et al., 2003); cited from earlier work
[8] = system: prognostic liver signature (PLS); assay: cPLS model: reversal of the prognostic liver signature in HCV-infected Huh7.5.1dif cells; assay type: cell-based, human; conditions: Huh7.5.1dif cells infected with HCV Jc1 for 7 days, treated 3 additional days; GSEA
[9] = system: M1-polarized THP1-derived macrophages; assay: RNA-Seq / GSEA of M1-polarized THP1-derived macrophages treated with Oxmetidine; assay type: cell-based, human
Method: M1 Macrophage Polarization and HRH2 Blocker Treatment. THP1 cells were cultured in RPMI 1640 Medium with GlutaMAX™-I supplement and HEPES and supplemented with 10% FBS and gentamycin (0.05 mg/mL). M1 macrophage polarization from THP-1 was performed as previously described (Yeung et al., J. Hepatol., 2015, 62: 607-616). To generate MO THP-1 macrophages, THP1 cells were treated with PMA 320 nM for 24 hours. To generate M1-polarized THP-1 macrophages, THP-1 cells were treated with […] then with 100 ng/ml LPS and 20 ng/ml IFNγ for 18 hours. Cells then were treated with HRH2 blockers 20 μM or DMSO vehicle for 72 hours.
RNA-Seq of M1 macrophages. RNA-Seq was performed on total RNA from MO macrophages, M1-polarized macrophages, and M1-polarized macrophages treated with Oxmetidine, Nizatidine or DMSO (triplicates). RNA-Seq was performed by the Biomedical Sequencing Facility (BSF) CEMM Research Center for Molecular Medicine of the Austrian Academy of Sciences, Vienna (Austria). Briefly, RNA-Seq libraries were generated from 300 ng of total RNA using TruSeq Stranded mRNA Sample Preparation Kit (Illumina, Part Number RS-122-2101). Following purification with poly-T oligo attached magnetic beads, the mRNA was fragmented using divalent cations at 94° C. for 2 minutes. The cleaved RNA fragments were copied into first strand cDNA using reverse transcriptase and random primers. Strand specificity was achieved by replacing dTTP with dUTP during second strand cDNA synthesis using DNA Polymerase I and RNase H. Following addition of a single ‘A’ base and subsequent ligation of the adapter on double stranded cDNA fragments, the products were purified and enriched with PCR (30 seconds at 98° C.; [10 seconds at 98° C., 30 seconds at 60° C., 30 seconds at 72° C.]×12 cycles; 5 minutes at 72° C.) to create the cDNA library. Surplus PCR primers were further removed by purification using AMPure XP beads (Beckman Coulter) and the final cDNA libraries were checked for quality and quantified using 2100 Bioanalyzer (Agilent). Libraries were sequenced on the Illumina HiSeq 4000 as Single-Read 50 base reads following Illumina's instructions. Image analysis and base calling were performed using RTA v2.7.3 and bcl2fastq v2.17.1.14.

[10] = Farup, Scand. J. Gastroenterol., 1988; cited from earlier work
[11] = Oxmetidine vs DMSO, 72 hours, GSEA
[12] = Oxmetidine vs DMSO, 72 hours, GSEA, in contrast to Nizatidine
[13] = single gene level, top 10 of Oxmetidine modulated genes

For `NC(N)=Nc1nc(CSCCN/C=N/S(=O)(=O)c2ccc(Br)cc2)cs1` [Ebrotidine, 4-bromo-N-[[[2-[[[2-[(diaminomethylene)amino]-4-thiazolyl]methyl]thio]ethyl]amino]methylene] benzenesulfonamide], the “activity against ethanol-, aspirin- or stress-induced gastric mucosal damage” value [1] is given as “gastroprotective activity” and the “efficacy for the treatment of gastric or duodenal ulcers or erosive reflux oesophagitis” value [2] is given as “as effective as Ranitidine”.

For `CC(C)/N=C/Nc1ccc(-c2c[nH]cn2)cc1` [Mifentidine, N-(4-(1H-imidazol-4-yl)phenyl)-N′-(1-methylethyl)methanimidamide], the gastric carcinoid tumors [3] is given as “produced gastric carcinoid tumors in rodents”.

For `CNC(=O)c1cc(Oc2ccc(NC(=O)Nc3ccc(Cl)c(C(F)(F)F)c3)cc2)ccn1` [sorafenib], the tumor spheroid response [4] was “did not respond”.

With `Nc1ncnc2c1nc(Sc1ccc(Cl)cc1)n2[C@@H]1O[C@@H]2COP(=O)(O)O[C@H]2[C@H]1O` [8-CPT-cAMP] the “PLS poor-prognosis status upon perturbation of the HRH2/cAMP/PKA axis” value [5] was “induction of the poor-prognosis status of the PLS”.

In the case of `CN/C(=N/CCSCc1nc[nH]c1C)NC#N` [Cimetidine], the anti-HCC effect [6] is given as “anti-HCC effect” and the “natural killer cell activity in peripheral blood” value [7] is given as “improves natural killer cell activity in peripheral blood”.

For `NCCc1c[nH]cn1` [histamine], the “PLS poor-prognosis status upon perturbation of the HRH2/cAMP/PKA axis” value [5] was “Induction of the PLS poor-prognosis status”.

In the case of `NC(N)=Nc1nc(CSCCC(N)=NS(N)(=O)=O)cs1` [Famotidine, 3-[[2-(diaminomethylideneamino)-1,3-thiazol-4-yl]methylsulfanyl]-N′-sulfamoyl-propanimidamide], the “reversal of the poor prognosis status of the prognostic liver signature (PLS)” value [8] is reported as “partial reversal of the PLS”.

With `Cc1[nH]cnc1CSCCNc1ncc(Cc2ccc3c(c2)OCO3)c(=O)[nH]1` [Oxmetidine, 5-(1,3-benzodioxol-5-ylmethyl)-2-[2-[(5-methyl-1H-imidazol-4-yl)methylsulfanyl]ethylamino]-1H-pyrimidin-6-one] the antigen presentation related-pathways [9, 11] was “improves antigen presentation related-pathways”, the “pathway mediating inflammation (TNFα, IL6)” value [9, 11] was “strongly suppresses pathway mediating inflammation” and the IFN response [9, 12] was “strong reduction in IFN response”. For the same compound, the cell metabolism [9, 12] was “improvement of cell metabolism”, the “expression of key genes regulating lipid metabolism (ABCG1, ABCA1, SREBF1)” value [9, 13] was “increase in expression of key genes regulating lipid metabolism” and the “pro-inflammatory gene expression (CCL7, CCL2, IL6)” value [9, 13] was “decrease in pro-inflammatory gene expression”.

In the case of `Cc1ncc(-c2csc(N=C(N)N)n2)[nH]1` [Zaltidine, 2-[4-(2-methyl-1H-imidazol-5-yl)-1,3-thiazol-2-yl]guanidine], the hepatotoxicity [10] is given as “hepatotoxic”.

For `Cn1nc(CO)nc1NCCCOc1cccc(CN2CCCCC2)c1` [Lavoltidine], the gastric carcinoid tumors [3] is listed as “produced gastric carcinoid tumors in rodents”.

In the case of `O=S(=O)(NCCNC/C=C/c1ccc(Br)cc1)c1cccc2cnccc12` [H89], the “PLS poor-prognosis status upon perturbation of the HRH2/cAMP/PKA axis” value [5] is reported as “reversed the induction of the PLS poor-prognosis status”.
